Patent US11000512B2, “Use of DDX3 inhibitors as antiproliferative agents” (AZIENDA OSPEDALIERA UNIVERSITARIA SENESE, priority 2016, dated 2021)

Key:
[1] = tested on: Human breast adenocarcinoma cell line (MDA-MB-231); experiment: Cytotoxicity test / growth inhibition, MDA-MB-231; assay type: cell-based; conditions: MDA-MB-231, 48 hours, cell counting
Protocol: (§1) Cells were purchased from American Type Culture Collection (ATCC, Manassas, Va., USA). The LNCaP (ATCC® CRL-1740™), A549 (ATCC® CCL-185™), MDA-MB-231 (ATCC® CRM-HTB-26™), 22Rv1 (ATCC® CRL-2505™), HCT-116 (ATCC® CCL-247™) and PC3 (ATCC® CRL-1435™) cells were maintained in Roswell Park Memorial Institute 1640 medium (RPMI; Euroclone, ECB9006L) supplemented with 10% fetal bovine serum (Euroclone; ECS0180L), 2 mM L-glutamine, 100 units/mL penicillin and […] streptomycin at 37° C. in an atmosphere of 5% CO2/air. DU145 (ATCC® HTB-81™), and DAOY (ATCC® HTB-186™) cells were maintained in Eagle's minimal essential medium (EMEM; Euro-clone, ECM0445L) supplemented with 10% fetal bovine serum (Euroclone; ECS0180L), 2 mM L-glutamine, 100 units/ml penicillin and […] streptomycin at 37° C. in an atmosphere of 5% CO2/air. SH-SY5Y (ATCC® CRL-2266™), DBRTG (ATCC® CRL-2020™), HeLa (ATCC® CCL-2™), HN6 cells (kindly provided by Dr Silvio Gutkind, UCSD Medical Center, Moores Cancer Center USA, Chen J. J et al, Oncotarget 2013, 4, 206-217)), U2OS (ATCC® HTB-96™), RD18 cells (kindly provided by Dr P. Boccuni Memorial Sloan-Kettering Cancer Center, New York, USA Vella S. et al. Clin Epigenetics. 2015 6; 7-82), cells were maintained in Dulbecco's modified Eagle's medium (DMEM; Euroclone, ECB7501L) supplemented with 10% fetal bovine serum (Euroclone; ECS0180L), 2 mM L-glutamine, 100 units/ml penicillin and 100 mg/mL streptomycin at 37° C. in an atmosphere of 5% CO2/air.
(§2) Cell lines were seeded at appropriate densities in 2 mL growth medium in 6-wells culture plates 24 hours before the treatment with the inhibitor compounds. After 24 h the culture medium was removed and fresh medium containing increasing concentrations of chemical compounds was added to cells. The fixed final concentrations were: 0.1 μM, 1 μM, 10 μM, 100 μM. DMSO was the vehicle used for dilution of the compounds and its final concentration on cells was less than 0.2%. Medium-only containing wells were included as controls. Cells were incubated 48 hours with drugs and, then, cell viability was evaluated.
(§3) Cells were detached from each well of the 6-wells plates with 300 μL of Trypsin and suspended in culture medium to a final volume of 1 mL. Cell viability was then assessed through cell counting. Cells were diluted in 1:50 ratio of an isotonic buffered diluent, Isoton (Backman Coulter), following the manufacturer's instructions, and counted using an automated cell counter (Z2 series Coulter Counter, Beckman Coulter). Each cell count was performed in three replicates. The values corresponding to the relative survival of cells in presence of each chemical compound at single concentrations were normalized to the untreated controls. Then, the half maximal inhibitory concentration (IC50) value, which represent the drug concentration that is required to induce a 50% growth inhibition in vitro, was calculated with GraphPad Prism 6.0 software using the best fitting sigmoid curve.

[2] = tested on: Human head and neck squamous carcinoma cell line (HN6); experiment: Cytotoxicity test / growth inhibition, HN6; assay type: cell-based; conditions: HN6, 48 hours, cell counting
Protocol: as §1, §2, §3

[3] = tested on: Human adenocarcinomic alveolar basal epithelial cell line (A549); experiment: Cytotoxicity test / growth inhibition, A549; assay type: cell-based; conditions: A549, 48 hours, cell counting
Protocol: as §1, §2, §3

[4] = tested on: Human colorectal carcinoma cell line (HCT116); experiment: Cytotoxicity test / growth inhibition, HCT116; assay type: cell-based; conditions: HCT-116, HCT116, 48 hours, cell counting
Protocol: as §1, with “2015 6; 7-82), cells were maintained in Dulbecco's modified Eagle's medium (DMEM; Euroclone, ECB7501L) supplemented with 10% fetal bovine serum (Euroclone; ECS0180L), 2 mM L-glutamine, 100 units/ml penicillin and 100 mg/mL streptomycin at 37° C. in an atmosphere of 5% CO2/air.” left out
(§4) Cell lines were seeded at appropriate densities in 2 mL growth medium in 6-wells culture plates 24 hours before the treatment with the inhibitor compounds. […] Cells were incubated 48 hours with drugs and, then, cell viability was evaluated.
(§5) Cells were detached from each well of the 6-wells plates with 300 μL of Trypsin and suspended in culture medium to a final volume of 1 mL. Cell viability was then assessed through cell counting. Cells were diluted in 1:50 ratio of an isotonic buffered diluent, Isoton (Backman Coulter), following the manufacturer's instructions, and counted using an automated cell counter (Z2 series Coulter Counter, Beckman Coulter). […]

HIV-1 (IIIB) = HIV-1 (IIIB) in MT4-cells; cited from earlier work
MOLT-4 T-lymphocytic = conditions: cited from earlier work
ATPase activity of DDX3 = ATPase activity of DDX3 (Homo sapiens, UniProt O00571); conditions: Maga et al. 2008; cited from earlier work
[5] = tested on: Human osteosarcoma cell line (U2OS); experiment: Cytotoxicity test / growth inhibition, U2OS; assay type: cell-based; conditions: 48 hours, cell counting
Protocol: as §1, §2, §3

[6] = tested on: Human Prostate cell line derived from brain metastasis (DU-145); experiment: Cytotoxicity test / growth inhibition, DU-145; assay type: cell-based; conditions: DU-145, 48 hours, cell counting
Protocol: as §1, §2
as §5, with “Coulter). Each cell count was performed in three replicates. The values corresponding to the relative survival of cells in presence of each chemical compound at single concentrations were normalized to the untreated controls.” for “Coulter).”

[7] = tested on: Human Prostate cancer cell line (PC3); experiment: Cytotoxicity test / growth inhibition, PC3; assay type: cell-based; conditions: PC3, 48 hours, cell counting
Protocol: as §1, with “2015 6; 7-82), cells were maintained in Dulbecco's modified Eagle's medium (DMEM; Euroclone, ECB7501L) supplemented with 10% fetal bovine serum (Euroclone; ECS0180L), 2 mM L-glutamine, 100 units/ml penicillin and 100 mg/mL streptomycin at 37° C. in an atmosphere of 5% CO2/air.” left out
as §4, §5

Sequence of ATPase activity of DDX3 (O00571 whole entry): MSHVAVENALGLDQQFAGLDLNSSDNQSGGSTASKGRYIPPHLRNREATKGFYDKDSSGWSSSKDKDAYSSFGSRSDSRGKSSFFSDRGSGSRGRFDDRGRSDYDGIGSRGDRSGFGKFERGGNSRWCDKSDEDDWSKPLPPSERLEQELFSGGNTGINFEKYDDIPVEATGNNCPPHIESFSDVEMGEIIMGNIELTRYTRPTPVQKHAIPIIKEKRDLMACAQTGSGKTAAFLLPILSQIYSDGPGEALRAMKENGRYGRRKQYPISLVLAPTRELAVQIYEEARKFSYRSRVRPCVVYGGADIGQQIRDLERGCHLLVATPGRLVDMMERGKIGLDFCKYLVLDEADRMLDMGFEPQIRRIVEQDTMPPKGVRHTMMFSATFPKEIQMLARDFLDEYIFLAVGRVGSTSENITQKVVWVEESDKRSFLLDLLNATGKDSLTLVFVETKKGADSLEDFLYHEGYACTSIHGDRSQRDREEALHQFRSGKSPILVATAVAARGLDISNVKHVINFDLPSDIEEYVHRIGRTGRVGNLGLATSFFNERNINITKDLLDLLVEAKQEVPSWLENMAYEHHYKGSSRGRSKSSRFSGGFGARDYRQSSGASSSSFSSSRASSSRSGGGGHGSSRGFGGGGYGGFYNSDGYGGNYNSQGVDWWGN

| SMILES | IC50 [1] [µM] | IC50 [2] [µM] | IC50 [3] [µM] | IC50 [4] [µM] | EC50 (HIV-1 (IIIB)) [µM] | CC50 (MOLT-4 T-lymphocytic) [µM] | Ki (ATPase activity of DDX3) [µM] | IC50 [5] [µM] | IC50 [6] [nM] | IC50 [7] [µM] |
| --- | --- | --- | --- | --- | --- | --- | --- | --- | --- | --- |
| CCCCc1nnc(-c2ccc(NC(=O)Nc3ccccc3C(F)(F)F)cc2)o1 [Compound 112, 1-(4-(5-butyl-1,3,4-oxadiazol-2-yl)phenyl)-3-(2-(trifluoromethyl)phenyl)urea] | 33.6 | 75.7 | 57.1 | 38.2 |  |  |  |  |  |  |
| O=C(CN1C(=O)/C(=C/c2cccc(Br)c2)SC1=S)Nc1ccccc1O [FE15] |  |  |  |  | 86.7 | > 200 | 5.4 |  |  |  |
| CCCCc1nc(-c2ccc(NC(=O)Nc3ccccc3C(F)(F)F)cc2)no1 [Compound 106, 1-(4-(5-butyl-1,2,4-oxadiazol-3-yl)phenyl)-3-(2-(trifluoromethyl)phenyl)urea] |  | 18.2 | 32.6 | 36.8 |  |  |  | 35.4 |  |  |
| CC(C)CCc1cn(-c2ccc(NC(=O)Nc3cccc4cnccc34)cc2)nn1 [Compound 55f, 1-(4-(4-isopentyl-1H-1,2,3-triazol-1-yl)phenyl)-3-(isoquinolin-5-yl)urea] |  | 6.1 |  |  |  |  |  |  | 600 | 32.4 |
